# Results taken from patent US10398747B2, “Composition comprising the extract of herbal combination for preventing or treating diabetic peripheral neuropathy” (DONG-A ST CO., LTD., priority 2011, dated 2019).
# Assays:
# [1] = system: nerve growth factor (NGF); experiment: Test for in vivo level of nerve growth factor in normal mouse model (ELISA); conditions: normal male ICR mice
# Protocol: Ability of the crude extract with 50% ethanol in Example 1 to induce the secretion of nerve growth factor in vivo was evaluates (O. Arrieta and J. Sotelo et al., Retinoic acid increased tissue and plasma contents of nerve growth factor and prevents neuropathy in diabetic mice. European Journal of Clinical Investigation (2005) 35).
# Male ICR mice, each weighing 25-30 g, were acclimated for 1 week at 22-24° C. at a relative humidity of 60-80% while being fed with water and a standard diet. They were divided into groups according to weight. The extracts prepared in the above Examples were orally administered in predetermined amounts to the mice, with Gabapentin used as a positive control at a doe of 100 mg/kg. 16 hours after which blood was sampled from the mice. They were then sacrificed to obtain the sciatic nerve and the salivary glands.
# After the blood samples were centrifuged at 10,000 rpm for 10 min, the levels of nerve growth factor in the plasma thus separated were measured by ELISA (ABS 440 nm). The sciatic nerve and the salivary glands were weighed and a solution containing 100 mM Tris-HCl, 1M NaCl, 2% BSA, 4 mM EDTA, 2.0% Trtion®X-100, 0.02% sodium azide, 0.1 mg/ml pepstatin A, 5 mg/ml aprotonin, 0.5 mg/ml antipain, 167 mg/ml benzamidine, and 5.2 mg/ml PMSF was added in amounts proportional to the weights, followed by homogenization. The homogenates were incubated for 15 min with 1N HCl in an amount of 1 μl/50 μl for oxidization and neutralized with 1N NaOH in an amount of 1 μl/50 μl. Centrifugation was performed at 10,000 rpm for 10 min to obtain supernatants. Like plasma, the sciatic nerve and the salivary glands were quantitatively analyzed for the level of nerve growth factor.
# [2] = system: nerve growth factor (NGF); experiment: NGF level in sciatic nerve and salivary gland of SD male rats with streptozotocin-induced type 1 diabetes (ELISA); format: in vivo, rat; conditions: streptozotocin-diabetic SD male rats
# Protocol: SD male rats, each weighing 220^˜250 g, were acclimated for one week at 22-24° C. at a relative humidity of 60-80% with standard diet and water fed thereto. Thereafter, a solution of streptozotocin in saline was intravenously administered once at a dose of 50 mg/kg to the rats to induce type 1 diabetes. Four weeks after the induction of diabetes, rats were divided into groups according to blood sugar level. The extracts prepared in the above Examples were orally administered once a day for 8 weeks at predetermined doses to the rats, while α-lipoic acid and Gabapentin were used as positive controls at does of 50 mg/kg and 100 mg/kg, respectively. Then, they were sacrificed to obtain the sciatic nerve and the salivary glands. The sciatic nerve and the salivary glands were processed in the same manner as in Test Example 1 and measured for NGF level by ELISA.
# [3] = system: SD male rats with streptozotocin-induced type 1 diabetes; experiment: Randall-Sellito test, threshold response to pressure on a paw, streptozotocin-diabetic SD rats; format: in vivo, rat
# Protocol: (§1) The ability of the extracts to alleviate the pain caused by diabetic neuropathy was examined. In this regard, rats with streptozotocin-induced diabetes were separated and orally administered with the extracts at a predetermined dose once a day for 14 weeks, with α-lipoic acid 50 mg/kg and Gabapentin 100 mg/kg serving as positive controls. A Randall-Sellito test was performed to measure a threshold response to pressure on a paw. The latent time taken to respond to a thermal pain was measured using a tail-flick test. In order to evaluate the neurodegeneration which had progressed with the onset of diabetic neuropathy, the sciatic nerve taken from the rats of each group was fixed with formalin and observed under an electron microscope to measure the size and thickness of the myelin sheath, and the results are summarized in Table 9.
# (§2) An increase in threshold to mechanical stimuli delineates an increase in threshold to pain. In the tail flick test, an increase in latent time to pain response corresponds to an increase in threshold to thermal stimuli, indicating the alleviation of pain.
# [4] = system: SD male rats with streptozotocin-induced type 1 diabetes; experiment: Tail-flick test, latent time to thermal pain, streptozotocin-diabetic SD rats; format: in vivo, rat
# Protocol: as §1, §2
# [5] = system: SD male rats with streptozotocin-induced type 1 diabetes; experiment: Neurodegeneration: size and thickness of myelin sheath of sciatic nerve by electron microscope, streptozotocin-diabetic SD rats; format: in vivo, rat
# Protocol: as §1
# [6] = system: ICR male mice with streptozotocin-induced type 1 diabetes; experiment: 58° C. hot plate test, ICR male mice with streptozotocin-induced type 1 diabetes; format: in vivo, mouse; conditions: streptozotocin-diabetic ICR male mice
# Protocol: (§3) ICR male mice, each weighing 25^˜30 g, were acclimated for one week at 22-24° C. at a relative humidity of 60-80%, with a standard diet and water fed thereto. Thereafter, a solution of streptozotocin in saline was intravenously administered once at a dose of 200 mg/kg to the mice to induce type 1 diabetes. Four weeks after the induction of diabetes, rats were divided into groups according to blood sugar level. The extracts prepared in the above Examples were orally administered once a day for 14 weeks at predetermined doses to the mice, while α-lipoic acid and Gabapentin were used as positive controls at a dose of 50 mg/kg and 100 mg/kg, respectively. Mice in each group were placed on a 58° C. hot plate, and examined for hyperalgesia to heat stimulus by measuring the latent time it took for the mice to feel a heat pain on their foot soles and jump.
# [7] = system: nerve growth factor (NGF); experiment: NGF level in sciatic nerve and salivary gland of ICR male mice with streptozotocin-induced type 1 diabetes (ELISA); format: in vivo, mouse; conditions: streptozotocin-diabetic ICR male mice
# Protocol: as §3
# Then, the mice were sacrificed to obtain the sciatic nerve and the salivary glands therefrom. The sciatic nerve and the salivary glands were processed in the same manner as in Test Example 1 and measured for NGF level by ELISA.
# [8] = system: db/db male mice with type 2 diabetes; experiment: 58° C. hot plate test, db/db male mice with type 2 diabetes; format: in vivo, mouse
# Protocol: (§4) db/db Male mice, each weighing 40^˜45 g, were acclimated for one week at 22-24° C. at a relative humidity of 60-80%, with a standard diet and water fed thereto. On the day of the 9th week after birth, the mice in which diabetes had been induced were selected. Four weeks later, mice suffering from type 2 diabetes were separated according to blood sugar level. The extracts prepared in the above Examples were orally administered once a day for 12 weeks at predetermined doses to the mice, while α-lipoic acid and gabapentin were used as positive controls at a dose of 50 mg/kg and 100 mg/kg, respectively. Mice in each group were placed on a 58° C. hot plate, and examined for hyperalgesia to heat stimulus by measuring the latent time it took for the mice to feel a heat pain on their foot soles and jump.
# [9] = system: nerve growth factor (NGF); experiment: NGF level in sciatic nerve of db/db male mice with type 2 diabetes (ELISA); format: in vivo, mouse
# Protocol: as §4
# Then, the mice were sacrificed to obtain the sciatic nerve therefrom. The sciatic nerve was processed in the same manner as in Test Example 1 and its NGF level was measured by ELISA.
# PC12 nerve cells = experiment: Growth of PC12 nerve cells (MTS assay); format: cell-based, rat; conditions: 48 hours
# Protocol: For use in a test for ability to induce nerve cell growth, PC12 nerve cells were seeded at the same density per well into plates and incubated for 24 hours.
# TrkA (NGF receptor) = experiment: Phosphorylation of NGF receptor in PC12 nerve cells (Western blotting); format: cell-based, rat; conditions: 48 hours
# Protocol: For use in this test, PC12 nerve cells were seeded at the same density per well into plates and incubated for 24 hours. The cells were washed with PBS and cultured for 48 hours in culture media supplemented with the herb extracts of Example 1 or Comparative Examples 1 to 10 or NGF. Thereafter, phosphorylated TrkA (NGF receptor) were detected using Western blotting, and quantitatively analyzed on the basis of the thickness of the detected bands.
# NGF signaling starts with the binding of NGF to its receptor (Trk-A), which results in the phosphorylation of the receptor. Thus, an increased level of phosphorylated NGF receptors means the amplification of the NGF signaling pathway.
# [10] = system: DRG (Dorsal root ganglion) nerve cells; experiment: Growth of neurites in rat-derived DRG nerve cells (neurite area under microscope); format: cell-based; conditions: rat embryo DRG cells, 48 hours
# Protocol: For use in this test, DRG nerve cells were seeded at the same density into plates and incubated for 24 hours. Thereafter, the cells were washed with PBS and cultured for 48 hours in a culture medium in the absence or presence of a combination of the extract of Example 1 or Comparative Examples 1 to 10, and NGF. The nerve cells in each group were observed under a microscope to measure the area of the neurites grown therein.
# [11] = oral 100 mg/kg, 16 hours after dosing
# [12] = oral 100 mg/kg once a day for 8 weeks
# [13] = oral 100 mg/kg once a day for 14 weeks
# [14] = oral 100 mg/kg once a day for 12 weeks
# [15] = 50 mg/kg once a day for 8 weeks
# [16] = 50 mg/kg once a day for 14 weeks
# [17] = 50 mg/kg once a day for 12 weeks
compound,measurement,setting,value
NCC1(CC(=O)O)CCCCC1 [Gabapentin],NGF Level in Plasma,[1]; [11],610.4 pg/mL
same,NGF Level in Salivary Gland,[1]; [11],193.1 ng/mg
same,NGF Level in Sciatic Nerve,[1]; [11],4.2 pg/mg
same,NGF Level Salivary Gland,[2]; [12],2.4 ng/mg
same,NGF Level Sciatic Nerve,[2]; [12],14.9 pg/mg
same,Pressure Pain Threshold,[3]; [13],137.7 g
same,Latent Time to Pain Reaction,[4]; [13],7.7 s
same,Size of Myelin sheath,[5]; 100 mg/kg,10.4 μm
same,Thickness of Myelin sheath,[5]; 100 mg/kg,2.2 μm
same,Latent Time to Pain Response on 58° C. Hot Plate,[6]; [13],33.0 s
same,NGF Level Salivary Gland,[7]; [13],117.1 ng/mg
same,NGF Level Sciatic Nerve,[7]; [13],5.5 pg/mg
same,Latent Time to Pain Response on 58° C. Hot Plate,[8]; [14],16.1 s
same,NGF Level in Sciatic Nerve,[9]; [14],7.2 pg/mg
O=C(O)CCCCC1CCSS1 (stereo not drawn) [α-Lipoic acid],NGF Level in Salivary Gland,[1]; 50 mg/kg,164.4 ng/mg
same,NGF Level in Sciatic Nerve,[1]; 50 mg/kg,5.0 pg/mg
same,NGF Level Salivary Gland,[2]; [15],2.8 ng/mg
same,NGF Level Sciatic Nerve,[2]; [15],13.8 pg/mg
same,Pressure Pain Threshold,[3]; [16],150.0 g
same,Latent Time to Pain Reaction,[4]; [16],7.4 s
same,Size of Myelin sheath,[5]; 50 mg/kg,11.2 μm
same,Thickness of Myelin sheath,[5]; 50 mg/kg,2.6 μm
same,Latent Time to Pain Response on 58° C. Hot Plate,[6]; [16],31.1 s
same,NGF Level Salivary Gland,[7]; [16],118.7 ng/mg
same,NGF Level Sciatic Nerve,[7]; [16],5.7 pg/mg
same,Latent Time to Pain Response on 58° C. Hot Plate,[8]; [17],15.4 s
same,NGF Level in Sciatic Nerve,[9]; [17],7.6 pg/mg
NGF: nerve growth factor added to culture media,Proliferative Effect on Nerve Cell,PC12 nerve cells; 2 ng/ml,112 % of control
same,Proliferative Effect on Nerve Cell,PC12 nerve cells; 50 ng/ml,118 % of control
same,Relative Amount of Phosphorylated NGF,TrkA (NGF receptor); NGF 2 ng/ml alone,241 % of control
same,Relative Amount of Phosphorylated NGF,TrkA (NGF receptor); NGF 50 ng/ml alone,337 % of control
same,Neurite Area of DRG Nerve Cell,[10]; NGF 2 ng/ml alone,235 μm^2
same,Neurite Area of DRG Nerve Cell,[10]; NGF 50 ng/ml alone,461 μm^2
